Reference: patent US7994326B2 (Northwestern University, priority 2003, dated 2011)

Key:
Assay type in all cases: biochemical
bovine eNOS = target: T1, bovine eNOS (Bos taurus, UniProt P29473); assay: NOS enzyme inhibitory assay (hemoglobin capture), eNOS; conditions: Table 1b; read-out: Ki eNOS
T1 construct: made in house; host or cells: E. coli (plasmid Bov-eNOSpCW)

murine iNOS = target: T2, murine iNOS (Mus musculus, UniProt P29477); assay: NOS enzyme inhibitory assay (hemoglobin capture), iNOS; conditions: Table 1b; read-out: Ki iNOS
T2 construct: made in house; host or cells: E. coli (plasmid pCWiNOS)
How it was run: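 Recombinant murine iNOS, overexpressed in E. coli from plasmid pCWiNOS (induced with 1 mM IPTG) and purified on a 2′,5′-ADP-Sepharose 4B column with elution by 10 mM 2′(3′)-AMP, 10 μM BH4 and 0.3 M NaCl, was used to test inhibitors. Nitric oxide production was followed with the hemoglobin capture assay, and IC50 values were determined.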

rat nNOS = target: T3, rat nNOS (Rattus norvegicus, UniProt P29476); assay: NOS enzyme inhibitory assay (hemoglobin capture), nNOS; conditions: Table 1b; for Selectivity n/e: ratio of Ki values eNOS/nNOS; for Selectivity n/i: ratio of Ki values iNOS/nNOS; for Ki: read-out: Ki nNOS
T3 construct: made in house; host or cells: E. coli (plasmid pCWnNOS)
How it was run: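 Recombinant rat nNOS expressed in E. coli and purified by calmodulin-Sepharose and 2′,5′-ADP-Sepharose chromatography. NO production followed by hemoglobin capture; inhibition expressed as Ki, selectivity as ratio of Ki values.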

Cc1cc(N)nc(CC2CNCC2NCCNCc2ccc(Cl)c(Cl)c2)c1.Cl.Cl.Cl.Cl (racemic) [Compound P-65] showed a Ki (bovine eNOS) of 63.2 µM, a Ki (murine iNOS) of 23.8 µM and a Selectivity n/e (rat nNOS) of 153. The Selectivity n/i (rat nNOS) was 57.4 and the Ki (rat nNOS) was 0.414 µM.
With Cc1cc(N)nc(C[C@H]2CNC[C@@H]2NCCNCc2ccc(Cl)cc2Cl)c1.Cl.Cl.Cl.Cl (racemic) [Compound P-66] the Ki (bovine eNOS) was 76.1 µM, the Ki (murine iNOS) was 44.2 µM and the Selectivity n/e (rat nNOS) was 158. It also gave a Selectivity n/i (rat nNOS) of 91.6 and a Ki (rat nNOS) of 0.483 µM.
Cc1cc(N)nc(CC2CNCC2NCC(C)NCc2ccc(Cl)cc2)c1.Cl.Cl.Cl.Cl (racemic) [Compound P-68] gave a Ki (bovine eNOS) of 16.5 µM, a Ki (murine iNOS) of 20.5 µM and a Selectivity n/e (rat nNOS) of 28. It also gave a Selectivity n/i (rat nNOS) of 34.7 and a Ki (rat nNOS) of 0.589 µM.
Cc1cc(N)nc(CC2CNCC2NCCNCCc2ccc(F)cc2)c1.Cl.Cl.Cl.Cl (racemic) [Compound P-70] gave a Ki (bovine eNOS) of 17.7 µM, a Ki (murine iNOS) of 4.6 µM and a Selectivity n/e (rat nNOS) of 656.2. The Selectivity n/i (rat nNOS) was 170.3 and the Ki (rat nNOS) was 0.027 µM.
Cc1cc(N)nc(C[C@H]2CNC[C@@H]2NCCNCCc2ccc(F)cc2)c1.Cl.Cl.Cl.Cl (racemic) [Compound P-72] showed a Ki (bovine eNOS) of 44.1 µM, a Ki (murine iNOS) of 22.6 µM and a Selectivity n/e (rat nNOS) of 370.5. For the same compound, the Selectivity n/i (rat nNOS) was 189.9 and the Ki (rat nNOS) was 0.119 µM.
Compound Cc1cc(N)nc(CC2CNCC2N(C)CCN(C)CCc2cccc(F)c2)c1.Cl.Cl.Cl.Cl (racemic) [Compound P-74] has a Ki (bovine eNOS) of 48.9 µM, a Ki (murine iNOS) of 56.6 µM and a Selectivity n/e (rat nNOS) of 40.27. The Selectivity n/i (rat nNOS) was 46.7 and the Ki (rat nNOS) was 1.21 µM.
With Cc1cc(N)nc(C[C@H]2CNC[C@H]2N(C)CCNCCc2cccc(F)c2)c1.Cl.Cl.Cl.Cl (racemic) [Compound P-75] the Ki (bovine eNOS) was 92.4 µM, the Ki (murine iNOS) was 38.2 µM and the Selectivity n/e (rat nNOS) was 283.5. The Selectivity n/i (rat nNOS) was 117.3 and the Ki (rat nNOS) was 0.326 µM.
Cc1cc(N)nc(C[C@H]2CNC[C@H]2NC(=O)CNCCc2cccc(F)c2)c1.Cl.Cl.Cl (racemic) [Compound P-77, (±)-N-{cis-4-[(6-amino-4-methylpyridin-2-yl)methyl]pyrrolidin-3-yl}-2-(3-fluorophenethylamino)acetamide trihydrochloride] was tested, and the Ki (bovine eNOS) was 26 µM, the Ki (murine iNOS) was 1.4 µM and the Selectivity n/e (rat nNOS) was 500. It also gave a Selectivity n/i (rat nNOS) of 26.4 and a Ki (rat nNOS) of 0.053 µM.
Cc1cc(N)nc(C[C@@H]2CNC[C@@H]2NCCOCCc2cccc(F)c2)c1 (racemic) [Compound P-78, cis-6-{{(±)-4-[2-(3-fluorophenethoxy)ethylamino]pyrrolidin-3-yl}methyl}-4-methylpyridin-2-amine] gave a Ki (bovine eNOS) of 20 µM, a Ki (murine iNOS) of 1.4 µM and a Selectivity n/e (rat nNOS) of 50. It also gave a Selectivity n/i (rat nNOS) of 3.5 and a Ki (rat nNOS) of 0.4 µM.
Cc1cc(N)nc(C[C@H]2CNC[C@H]2OCCNC(=O)Cc2cccc(F)c2)c1.Cl.Cl (racemic) [Compound P-80, (±)-N-{2-{cis-4-[(6-amino-4-methylpyridin-2-yl)methyl]pyrrolidin-3-yloxy}ethyl}-2-(3-fluorophenyl)acetamide dihydrochloride] gave a Ki (bovine eNOS) of 85 µM, a Ki (murine iNOS) of 19 µM and a Selectivity n/e (rat nNOS) of 17. For the same compound, the Selectivity n/i (rat nNOS) was 3.8 and the Ki (rat nNOS) was 5 µM.
Cc1cc(N)nc(C[C@H]2CNC[C@@H]2OCCN)c1.Cl.Cl.Cl (racemic) [Compound P-81] gave a Ki (bovine eNOS) of 1.5 µM, a Ki (murine iNOS) of 8.5 µM and a Selectivity n/e (rat nNOS) of 0.3. For the same compound, the Selectivity n/i (rat nNOS) was 1.7 and the Ki (rat nNOS) was 5 µM.
For Cl.Cl.Cl.Cl.Nc1nc(CC2CNCC2NCCNCc2ccc(Cl)cc2)cs1 (racemic) [Compound P-82], the Ki (bovine eNOS) was 3 µM, the Ki (murine iNOS) was 3.4 µM and the Selectivity n/e (rat nNOS) was 1.8. It also gave a Selectivity n/i (rat nNOS) of 2 and a Ki (rat nNOS) of 1.7 µM.
